One molecule from patent publication US20260199294A1, “PEPTIDE DRUG CONJUGATES” (Oncopeptides Innovation AB, priority 2022, published 2026) can be followed below.

Each structure is given as a SMILES string. “Also recorded” adds a separate entry of the source.

In data set [1] the test system is BJ Fibroblasts (normal cells). The data set can be described thus: In vitro cytotoxicity (CellTiter-Glo, 72 h) in BJ fibroblasts. In kind it is cell-based, human. As to the method: (§1) All cells were cultivated in RPMI medium 1640 (IX). All media was supplemented with […] penicillin/streptomycin, 10% heat inactivated FBS, 0.1 mM Sodium Pyruvate, 1×MEM NEAA (ThermoFisher) and 1 mM HEPES. The DERL-2 cells had higher FBS (20%) and 40 ng/mL IL-2 was added. hPBMCs were thawed and allowed to acclimatise overnight and then stimulated with 10 µg/mL PHA-M and 40 ng/mL IL-2 for 4 hours before being exposed to test compounds. All cells, except for hPBMCs, were grown to reach log phase before being exposed to the test compounds.
(§2) Test compounds were dissolved in 100% DMSO and added to a 384 assay plate. Additional DMSO was added to maintain the same final DMSO concentration (0.2%) in all wells. 25 μL cell suspension with a concentration of 100000 cells/mL was added to each well. The cells were cultured in a CO2 incubator at 37° C. for 72 h. Plates were equilibrated to room temperature for 30 minutes before adding 20 μL CellTiter-Glo® 2.0 (Promega) reagent to all wells. The plate was then allowed to stabilize for 20 minutes before recording the luminescence (Em filter 700 nm) in an Envision plate reader.
On the technique in general: Cellular ATP, detected with luciferase, serves as a proxy for viable cell number.

Data set [2] concerns MM.1S cells. Kind of data set: Cellular retention/efflux: intracellular and extracellular concentrations by LC-MS/MS. It counts as in vitro ADME, human. As to conditions: MM.1S cells. As to the method: Methods: MM.1S cells at 2×10^6 cells/mL were seeded at 250 μL per well in a 96-well plate. Cells were incubated in the presence of a test compound for 5, 15, and 60 min before pelleting cells by centrifugation at +4° C. for 5 min. Cell media was immediately harvested to a second plate and stored at −80° C. until further analysis. Pelleted cells were washed once with ice cold PBS before storage at −80° C. until further analysis.
Cells were lysed and protein in the media were precipitated using acetonitrile dimethylformamide, 9:1 containing internal standard. Samples were centrifuged and the supernatant was analyzed with LC-MS/MS (ACQUITY UPLC-Xevo TQ-S micro) to determine compound concentration.
Example compound 1, bendamustine and melphalan were used as test compounds.
Method: Method described in Biological example 3.
Example compounds 1, 2, 3, 4, 6, 7 and 10 were investigated. Intracellular metabolites are formed from all compounds tested. The compound used for cell treatment was metabolised to the ester-hydrolysed compound (here called Metabolite A) and to the amide-hydrolysed compound (called Metabolite B). The example compound structures and the structures of the two metabolites for the respective compounds were as shown in Table 4. The Metabolites B formed under the conditions tested were compounds with structure as Examples 17 and 18: […]

For data set [3], the system named is nuclear DNA (HPRT) prepared from MM.1S cells. Kind of data set: Direct DNA damage, PCR amplification with HPRT primers. The following applies: 0.25 μM compound, 30 minutes at 37° C. It counts as biochemical, human. As to the method: (§3) Method: DNA was prepared from MM.1S cells by QIAGEN genomic tip 20/G according to protocol described in Furda et al., Methods Mol Biol, 2012. 1 μg of DNA was treated with 0.25 μM compound for 30 minutes at 37° C. DMSO was used as control treatment. 20 ng of the treated DNA was PCR amplified using Phusion Hot Start II High Fidelity PCR Master Mix (Thermo Scientific) and primers directed to either HPRT or primers directed to mitochondrial DNA (mtDNA) was used, generating 10.4 or 8.9 kb fragments, respectively. The PCR reactions were separated on a 1% agarose gel and visualized by ChemiDoc™ MP Imaging System (BioRad). Example compounds 1, 2 and 38 were investigated, as were compounds 18 and 20, which are metabolites of compound 1. They were compared with bendamustine, melphalan and DMSO control. The results for compounds 1, 2, 18 and 20 with the HPRT primers are shown in FIG. 4(A); the results with the mtDNA primers are shown in FIG. 4(B).

The subject of data set [4] is SU-DHL-4 human lymphoma cell line xenografts. Kind of data set: Chicken embryo (in ovo) xenograft model, tumour weight. It counts as in vivo. As to conditions: 8.4, 33.5, 167.5 μM. Here is the method: Methods: Inoculation of Fertilized White Leghorn eggs was performed with 3×10^6 SU-DHL-4 tumour cells on day 9 (post-fertilisation). Viable eggs were injected with 100 μL of either Example compound 1 (8.4 μM (0.008 mg/kg), 33.5 μM (0.033 mg/kg), 167.5 μM (0.164 mg/kg)), bendamustine (8.4 μM (0.005 mg/kg), 33.5 μM (0.02 mg/kg), 167.5 μM (0.1 mg/kg)) or vehicle on day 11, 13, 15 and 17. On day 18, tumours were removed and weighed.

Data set [5] has as its system mitochondrial DNA (mtDNA) prepared from MM.1S cells. The data set can be described thus: Direct DNA damage, PCR amplification with mtDNA primers. In kind it is biochemical, human. The following applies: 0.25 μM compound, 30 minutes at 37° C. As to the method:
as §3

Data set [6] is described as follows: Stability of Example compound 1 in solution with various excipients (HPLC). As to conditions: 0.4 mg/mL. In kind it is physicochemical. Here is the method: Ethyl (2S)-2-[[(2S)-2-amino-4-[5-[bis(2-chloroethyl)amino]-1-methyl-benzimidazol-2-yl]butanoyl]amino]-4-methyl-pentanoate (Example compound 1; 19.2 mg, 16.7 mg free base) was dissolved in dimethylacetamide (419 μL) to give a 40 mg/mL stock solution.
Solutions of 0.4 mg/mL of Example compound 1 were prepared by diluting the stock solution in dimethylacetamide (40 mg/mL, 10 μL) with different solutions (990 μL) according to the Table 5 and the stability after 4 h at room temperature was analyzed by HPLC (Analytical HPLC was carried out on an Agilent Series 1100 system using a Kinetex XB C18 (2.6 μm, 3.0×50 mm) column with 0.1% TFA in H2O/CH3CN as mobile phase (acid conditions) (flow 1 mL/min). The excipients were reported in weight ratio excipient:Example compound 1 (free base).

For data set [7], the system named is hPBMC (Human Peripheral blood mononuclear cells). The data set can be described thus: In vitro cytotoxicity (CellTiter-Glo, 72 h) in hPBMC. As to conditions: stimulated with PHA-M and IL-2. In kind it is cell-based. Here is the method:
as §1, §2

The IC50 is the concentration at which inhibition is half-maximal. Read a low IC50 as inhibition by little substance. Regarding `CCOC(=O)[C@H](CC(C)C)NC(=O)[C@@H](N)CCc1nc2cc(N(CCCl)CCCl)ccc2n1C` [Example compound 1, Ethyl (2S)-2-[[(2S)-2-amino-4-[5-[bis(2-chloroethyl)amino]-1-methyl-benzimidazol-2-yl]butanoyl]amino]-4-methyl-pentanoate], the IC50 came to 1070 nM in data set [1] and 5.4 nM in data set [7]. Further, in data set [2], the “intracellular hydrolysis / metabolite formation” value is reported as “hydrolysis of Example compound 1 took place inside the cells”. The “DNA damage on nuclear DNA (HPRT 10.4 kb PCR band)” value in data set [3] is listed as “strong DNA damaging effect”. Moreover, in data set [4], the “effect on tumour weight / tumour growth (in words)” value is on record as “dose dependent effect on tumour weight; also recorded: particularly effective at inhibiting tumor growth”. Also, in data set [5], the “DNA damage on mitochondrial DNA (8.9 kb PCR band)” value is listed as “strong DNA damaging effect”. Also, the “Ex 1 remaining after 4 h at room temp (%)” value (from here on “Ex 1 remaining … (%)”) in data set [6] (2-Hydroxypropyl-β-cyclodextrin (Kleptose), Ultrapure water (MilliQ), weight ratio excipient:Ex 1 5) came to 78%; in data set [6] (2-Hydroxypropyl-β-cyclodextrin (Kleptose), Ultrapure water (MilliQ), weight ratio excipient:Ex 1 10), 84%; in data set [6] (2-Hydroxypropyl-β-cyclodextrin (Kleptose), Ultrapure water (MilliQ), weight ratio excipient:Ex 1 20), 85%; in data set [6] (2-Hydroxypropyl-γ-cyclodextrin, Ultrapure water (MilliQ), weight ratio excipient:Ex 1 5), 82%; in data set [6] (2-Hydroxypropyl-γ-cyclodextrin, Ultrapure water (MilliQ), weight ratio excipient:Ex 1 10), 86%; in data set [6] (2-Hydroxypropyl-γ-cyclodextrin, Ultrapure water (MilliQ), weight ratio excipient:Ex 1 20) it was 79%. Moreover, the “Ex 1 remaining … (%)” value in data set [6] (Betadex Sulfobutyl Ether Sodium (Dexolve), Ultrapure water (MilliQ), weight ratio excipient:Ex 1 5) was 99%; in data set [6] (Betadex Sulfobutyl Ether Sodium (Dexolve), Ultrapure water (MilliQ), weight ratio excipient:Ex 1 10), 101%; in data set [6] (Betadex Sulfobutyl Ether Sodium (Dexolve), Ultrapure water (MilliQ), weight ratio excipient:Ex 1 20), 98%; in data set [6] (excipient None, solvent 0.9% Saline, ratio 0), 93%; in data set [6] (excipient None, solvent 5% Glucose, ratio 0) it was 80%; in data set [6] (excipient None, solvent DPBS, ratio 0), 10%. The “Ex 1 remaining … (%)” value in data set [6] (excipient None, solvent Dimethylacetamide, ratio 0) was 103%; in data set [6] (excipient None, solvent Ultrapure water (MilliQ), ratio 0) it was 85%; in data set [6] (γ-Cyclodextrin, Ultrapure water (MilliQ), weight ratio excipient:Ex 1 5) it was 78%; in data set [6] (γ-Cyclodextrin, Ultrapure water (MilliQ), weight ratio excipient:Ex 1 10) it was 82%; in data set [6] (γ-Cyclodextrin, Ultrapure water (MilliQ), weight ratio excipient:Ex 1 20) it was 86%.
